Assay results taken from the CheMixHub viscosity set.
Values joined by “and” are separate entries in the source; they are usually repeats but may differ in a detail not shown here. Equal entries are not always repeated. ± gives the uncertainty stated by the source.

Experiment: xn = mol fraction of the nth substance listed

SMILES: Brc1ccccc1 + COCCO
- viscosity (303.15 K, 101.33 kPa, x2 = 0.1188): 0.997 ± 0.013 mPa·s
- viscosity (303.15 K, 101.33 kPa, x2 = 0.219): 1.024 ± 0.013 mPa·s
- viscosity (303.15 K, 101.33 kPa, x2 = 0.3173): 1.06 ± 0.013 mPa·s
- viscosity (303.15 K, 101.33 kPa, x2 = 0.4336): 1.114 ± 0.014 mPa·s
- viscosity (303.15 K, 101.33 kPa, x2 = 0.4974): 1.147 ± 0.014 mPa·s
- viscosity (303.15 K, 101.33 kPa, x2 = 0.5621): 1.179 ± 0.015 mPa·s
- viscosity (303.15 K, 101.33 kPa, x2 = 0.7198): 1.255 ± 0.016 mPa·s
- viscosity (303.15 K, 101.33 kPa, x2 = 0.8018): 1.296 ± 0.016 mPa·s
- viscosity (303.15 K, 101.33 kPa, x2 = 0.9254): 1.352 ± 0.017 mPa·s

SMILES: Brc1ccccc1 + Clc1ccccc1
- viscosity (298.15 K, 101 kPa, x2 = 0.299): 0.934 ± 0.009 mPa·s
- viscosity (298.15 K, 101 kPa, x2 = 0.512): 0.86 ± 0.009 mPa·s
- viscosity (298.15 K, 101 kPa, x2 = 0.676): 0.823 ± 0.008 mPa·s
- viscosity (298.15 K, 101 kPa, x2 = 0.828): 0.774 ± 0.008 mPa·s

SMILES: Brc1ccccc1 + CCCCCO
- viscosity (293.15 K, 101.33 kPa, x2 = 0.0631): 1.14 ± 0.028 mPa·s
- viscosity (293.15 K, 101.33 kPa, x2 = 0.1715): 1.212 ± 0.03 mPa·s
- viscosity (293.15 K, 101.33 kPa, x2 = 0.2092): 1.252 ± 0.03 mPa·s
- viscosity (293.15 K, 101.33 kPa, x2 = 0.2807): 1.335 ± 0.032 mPa·s
- viscosity (293.15 K, 101.33 kPa, x2 = 0.3259): 1.398 ± 0.034 mPa·s
- viscosity (293.15 K, 101.33 kPa, x2 = 0.3831): 1.512 ± 0.036 mPa·s
- viscosity (293.15 K, 101.33 kPa, x2 = 0.4182): 1.57 ± 0.037 mPa·s
- viscosity (293.15 K, 101.33 kPa, x2 = 0.4909): 1.716 ± 0.04 mPa·s
- viscosity (293.15 K, 101.33 kPa, x2 = 0.5969): 2.011 ± 0.047 mPa·s
- viscosity (293.15 K, 101.33 kPa, x2 = 0.6886): 2.346 ± 0.054 mPa·s
- viscosity (293.15 K, 101.33 kPa, x2 = 0.7544): 2.636 ± 0.06 mPa·s
- viscosity (293.15 K, 101.33 kPa, x2 = 0.8796): 3.294 ± 0.074 mPa·s

SMILES: C1COCCO1 + Cc1ccccc1
- viscosity (293.15 K, 101 kPa, x1 = 0.6506): 1.045 ± 0.022 mPa·s
- viscosity (303.15 K, 101 kPa, x1 = 0.0992): 0.556 ± 0.006 mPa·s
- viscosity (303.15 K, 101 kPa, x1 = 0.1216): 0.5749 ± 0.0042 mPa·s
- viscosity (303.15 K, 101 kPa, x1 = 0.122): 0.573 ± 0.01 mPa·s
- viscosity (303.15 K, 101 kPa, x1 = 0.1993): 0.591 ± 0.006 mPa·s
- viscosity (303.15 K, 101 kPa, x1 = 0.2367): 0.6251 ± 0.0045 mPa·s
- viscosity (303.15 K, 101 kPa, x1 = 0.237): 0.622 ± 0.011 mPa·s
- viscosity (303.15 K, 101 kPa, x1 = 0.2925): 0.628 ± 0.006 mPa·s
- viscosity (303.15 K, 101 kPa, x1 = 0.347): 0.675 ± 0.012 mPa·s
- viscosity (303.15 K, 101 kPa, x1 = 0.3999): 0.676 ± 0.007 mPa·s
- viscosity (303.15 K, 101 kPa, x1 = 0.453): 0.7299 ± 0.0051 mPa·s and 0.729 ± 0.012 mPa·s
- viscosity (303.15 K, 101 kPa, x1 = 0.4961): 0.723 ± 0.007 mPa·s
- viscosity (303.15 K, 101 kPa, x1 = 0.554): 0.779 ± 0.013 mPa·s
- viscosity (303.15 K, 101 kPa, x1 = 0.5541): 0.781 ± 0.0054 mPa·s
- viscosity (303.15 K, 101 kPa, x1 = 0.5981): 0.778 ± 0.008 mPa·s
- viscosity (303.15 K, 101 kPa, x1 = 0.65): 0.831 ± 0.014 mPa·s
- viscosity (303.15 K, 101 kPa, x1 = 0.6504): 0.8368 ± 0.0057 mPa·s
- viscosity (303.15 K, 101 kPa, x1 = 0.6985): 0.843 ± 0.008 mPa·s
- viscosity (303.15 K, 101 kPa, x1 = 0.7438): 0.8912 ± 0.0061 mPa·s
- viscosity (303.15 K, 101 kPa, x1 = 0.744): 0.882 ± 0.015 mPa·s
- viscosity (303.15 K, 101 kPa, x1 = 0.8009): 0.918 ± 0.009 mPa·s
- viscosity (303.15 K, 101 kPa, x1 = 0.8327): 0.9416 ± 0.0063 mPa·s
- viscosity (303.15 K, 101 kPa, x1 = 0.833): 0.939 ± 0.016 mPa·s
- viscosity (303.15 K, 101 kPa, x1 = 0.8967): 0.998 ± 0.01 mPa·s
- viscosity (303.15 K, 101 kPa, x1 = 0.918): 0.9965 ± 0.0067 mPa·s and 0.995 ± 0.016 mPa·s
- viscosity (308.15 K, 101 kPa, x1 = 0.1): 0.533 ± 0.007 mPa·s
- viscosity (308.15 K, 101 kPa, x1 = 0.3): 0.593 ± 0.008 mPa·s
- viscosity (308.15 K, 101 kPa, x1 = 0.4): 0.629 ± 0.008 mPa·s
- viscosity (308.15 K, 101 kPa, x1 = 0.5): 0.669 ± 0.009 mPa·s
- viscosity (308.15 K, 101 kPa, x1 = 0.6): 0.709 ± 0.009 mPa·s
- viscosity (308.15 K, 101 kPa, x1 = 0.7): 0.764 ± 0.01 mPa·s
- viscosity (308.15 K, 101 kPa, x1 = 0.9): 0.893 ± 0.011 mPa·s

SMILES: O=C1CCCCO1 + CNC(C)=O
- viscosity (303.15 K, 101 kPa, x2 = 0.0818): 2.648 ± 0.18 mPa·s
- viscosity (303.15 K, 101 kPa, x2 = 0.2377): 2.494 ± 0.17 mPa·s
- viscosity (303.15 K, 101 kPa, x2 = 0.3396): 2.393 ± 0.16 mPa·s
- viscosity (303.15 K, 101 kPa, x2 = 0.4641): 2.352 ± 0.16 mPa·s
- viscosity (303.15 K, 101 kPa, x2 = 0.5194): 2.389 ± 0.16 mPa·s
- viscosity (303.15 K, 101 kPa, x2 = 0.717): 2.607 ± 0.18 mPa·s
- viscosity (303.15 K, 101 kPa, x2 = 0.7962): 2.782 ± 0.19 mPa·s
- viscosity (303.15 K, 101 kPa, x2 = 0.8929): 3.108 ± 0.21 mPa·s
- viscosity (303.15 K, 101 kPa, x2 = 0.9596): 3.512 ± 0.23 mPa·s
- viscosity (308.15 K, 101 kPa, x2 = 0.0818): 2.412 ± 0.16 mPa·s
- viscosity (308.15 K, 101 kPa, x2 = 0.2377): 2.288 ± 0.16 mPa·s
- viscosity (308.15 K, 101 kPa, x2 = 0.3396): 2.199 ± 0.15 mPa·s
- viscosity (308.15 K, 101 kPa, x2 = 0.4641): 2.203 ± 0.15 mPa·s
- viscosity (308.15 K, 101 kPa, x2 = 0.5194): 2.222 ± 0.15 mPa·s
- viscosity (308.15 K, 101 kPa, x2 = 0.717): 2.422 ± 0.17 mPa·s
- viscosity (308.15 K, 101 kPa, x2 = 0.7962): 2.583 ± 0.18 mPa·s
- viscosity (308.15 K, 101 kPa, x2 = 0.8929): 2.896 ± 0.2 mPa·s
- viscosity (308.15 K, 101 kPa, x2 = 0.9596): 3.125 ± 0.21 mPa·s
- viscosity (313.15 K, 101 kPa, x2 = 0.0818): 2.204 ± 0.15 mPa·s
- viscosity (313.15 K, 101 kPa, x2 = 0.2377): 2.101 ± 0.14 mPa·s
- viscosity (313.15 K, 101 kPa, x2 = 0.3396): 2.06 ± 0.14 mPa·s
- viscosity (313.15 K, 101 kPa, x2 = 0.4641): 2.021 ± 0.14 mPa·s
- viscosity (313.15 K, 101 kPa, x2 = 0.5194): 2.023 ± 0.14 mPa·s
- viscosity (313.15 K, 101 kPa, x2 = 0.717): 2.165 ± 0.15 mPa·s
- viscosity (313.15 K, 101 kPa, x2 = 0.7962): 2.304 ± 0.16 mPa·s
- viscosity (313.15 K, 101 kPa, x2 = 0.8929): 2.559 ± 0.17 mPa·s
- viscosity (313.15 K, 101 kPa, x2 = 0.9596): 2.765 ± 0.19 mPa·s
- viscosity (318.15 K, 101 kPa, x2 = 0.0818): 2.02 ± 0.14 mPa·s
- viscosity (318.15 K, 101 kPa, x2 = 0.2377): 1.916 ± 0.13 mPa·s
- viscosity (318.15 K, 101 kPa, x2 = 0.3396): 1.862 ± 0.13 mPa·s
- viscosity (318.15 K, 101 kPa, x2 = 0.4641): 1.843 ± 0.13 mPa·s
- viscosity (318.15 K, 101 kPa, x2 = 0.5194): 1.862 ± 0.13 mPa·s
- viscosity (318.15 K, 101 kPa, x2 = 0.717): 1.994 ± 0.14 mPa·s
- viscosity (318.15 K, 101 kPa, x2 = 0.7962): 2.111 ± 0.15 mPa·s
- viscosity (318.15 K, 101 kPa, x2 = 0.8929): 2.3 ± 0.16 mPa·s
- viscosity (318.15 K, 101 kPa, x2 = 0.9596): 2.491 ± 0.17 mPa·s

SMILES: Brc1ccccc1 + CN(C)C=O
- viscosity (303.15 K, 101.33 kPa, x2 = 0.0879): 0.982 ± 0.007 mPa·s
- viscosity (303.15 K, 101.33 kPa, x2 = 0.2075): 0.973 ± 0.007 mPa·s
- viscosity (303.15 K, 101.33 kPa, x2 = 0.3085): 0.963 ± 0.007 mPa·s
- viscosity (303.15 K, 101.33 kPa, x2 = 0.4055): 0.949 ± 0.007 mPa·s
- viscosity (303.15 K, 101.33 kPa, x2 = 0.5063): 0.931 ± 0.007 mPa·s
- viscosity (303.15 K, 101.33 kPa, x2 = 0.6027): 0.905 ± 0.007 mPa·s
- viscosity (303.15 K, 101.33 kPa, x2 = 0.6877): 0.879 ± 0.007 mPa·s
- viscosity (303.15 K, 101.33 kPa, x2 = 0.8054): 0.831 ± 0.006 mPa·s
- viscosity (303.15 K, 101.33 kPa, x2 = 0.9002): 0.789 ± 0.006 mPa·s
- viscosity (313.15 K, 101.33 kPa, x2 = 0.0879): 0.889 ± 0.007 mPa·s
- viscosity (313.15 K, 101.33 kPa, x2 = 0.2075): 0.879 ± 0.007 mPa·s
- viscosity (313.15 K, 101.33 kPa, x2 = 0.3085): 0.87 ± 0.007 mPa·s
- viscosity (313.15 K, 101.33 kPa, x2 = 0.4055): 0.854 ± 0.006 mPa·s
- viscosity (313.15 K, 101.33 kPa, x2 = 0.5063): 0.838 ± 0.006 mPa·s
- viscosity (313.15 K, 101.33 kPa, x2 = 0.6027): 0.816 ± 0.006 mPa·s
- viscosity (313.15 K, 101.33 kPa, x2 = 0.6877): 0.792 ± 0.006 mPa·s
- viscosity (313.15 K, 101.33 kPa, x2 = 0.8054): 0.749 ± 0.006 mPa·s
- viscosity (313.15 K, 101.33 kPa, x2 = 0.9001): 0.711 ± 0.005 mPa·s
